Test results reported in patent publication US20260306525A1, “COMBINATION THERAPY GLUCOCORTICOIDS AND GINSENOSIDE” (FYTAGORAS B.V., priority 2023, published 2026).

Assays:
macrophages = assay: zebrafish tail fin wounding assay, macrophage migration to wounded site; format: in vivo, zebrafish (Danio rerio); conditions: Example 2; PPT 50 μM; F1, Rh1, Rg1 100 μM; Bec positive control; 3 dpf
Description: Zebrafish (Danio rerio) were maintained and handled according to the guidelines from the Zebrafish Model Organism Database (http://zfin.org) and in compliance with the directives of the local animal welfare committee of Leiden University. Zebrafish were exposed to a 14 h light and 10 h dark cycle to maintain circadian rhythmicity. Fertilization was performed by natural spawning at the beginning of the light period. […] The following zebrafish lines were used in this study: the double transgenic line Tg(mpx:GFP^i114/mpeg1:mCherry^umsF001), in which neutrophils and macrophages are fluorescently labeled (green and red, respectively), and the Tg(9xGCRE-HSV.UI23:EGFP)^ia20 reporter line, in which the gene encoding enhanced green fluorescent protein (EGFP) is driven by a GRE-containing promoter.
For the tail fin wounding experiments, 20 larvae at 2 or 3 days post-fertilization (dpf) were utilized for each experimental group. For wounding, larvae were anesthetized in egg water containing 0.02% buffered aminobenzoic acid ethyl ester (tricaine; Sigma-Aldrich). Larvae were placed on Petri dishes coated with 2% agarose under a Leica M165C stereomicroscope (Leica Microsystems, Wetzlar, Germany), and the tails were partly amputated using a 1-mm sapphire blade (World Precision Instruments, Sarasota, FL, USA). For quantification of leukocyte migration, larvae were fixed overnight in 4% paraformaldehyde (PFA) at 4° C. The next day, fixed larvae were washed with Phosphate Buffered Saline (PBS) containing 0.1% Tween 20, and stored at 4° C. until imaging.
The macrophages were detected based on their red (mCherry) fluorescence, and neutrophils based on their green (EGFP) fluorescence. To quantify the number of macrophages and neutrophils recruited to the wounded area, the cells in a defined area of the tail were determined by blinded manual counting.
Zebrafish (Danio rerio) were maintained and handled according to the guidelines from the Zebrafish Model Organism Database (http://zfin.org) and in compliance with the directives of the local animal welfare committee of Leiden University. Zebrafish were exposed to a 14 h light and 10 h dark cycle to maintain circadian rhythmicity. Fertilization was performed by natural spawning at the beginning of the light period. […] The following zebrafish lines were used in this study: AB/TL wild type, the transgenic lines Tg(mpx:GFP^i114/mpeg1:mCherry^umsF001)[14, 15], and Tg(9xGCRE-HSV.UI23:EGFPia^20)[16], and the mutant lines grs357[20].
For the tail fin wounding experiments, 2- or 3-days post-fertilization (dpf) larvae were anesthetized in egg water containing 0.02% buffered aminobenzoic acid ethyl ester (tricaine; Sigma-Aldrich). Larvae were placed in Petri dishes coated with 2% agarose under a Leica M165C stereomicroscope (Leica Microsystems, Wetzlar, Germany), and the tails were partly amputated using a 1-mm sapphire blade (World Precision Instruments, Sarasota, FL, USA).
In experiments in which the leukocyte migration was used as a readout, larvae were subjected to treatment with chemicals as indicated, starting at 2 h before the amputation (pretreatment), and treatment was continued for 4 h after the tail fin amputation (20 larvae per group, unless indicated otherwise). In some experiments, a 24 h treatment with MZ31 (10 μM) was started at 2 dpf, and these treatments were continued during the pretreatment and treatment with the other chemicals. At 4 h after amputation, the larvae were fixed in 4% paraformaldehyde (PFA) overnight at 4° C. The next day, fixed larvae were washed with Phosphate Buffered Saline (PBS) containing 0.1% Tween 20 and stored at 4° C. until imaging. […] The macrophages were detected based on red (mCherry) fluorescence and neutrophils on their green (EGFP) fluorescence. To quantify the number of macrophages and neutrophils recruited to the wounded area, the cells in a defined area of the tail were determined by blinded manual counting. […]

zebrafish larvae = assay: whole-body cortisol measurement of zebrafish larvae (ELISA); conditions: for whole-body cortisol level: Example 2, non-wounded; for whole-body cortisol level / whole-body cortisol level upon wounding: 5 dpf; for whole-body cortisol level upon wounding: Example 2, wounded at 2 dpf; for whole body cortisol level: 0-4 dpf, 10 μM beclomethasone, 50 μM Rg1 or combination
Description: Ethyl acetate was added to the homogenate. The homogenates were then centrifuged at 4° C. for 8 min at 11,000 rpm and the supernatant was collected and vaporized. A volume of 150 μl of 0.2% Bovine serum albumin (Sigma-Aldrich) dissolved in PBS was added to the samples and frozen. Whole-body cortisol levels of the zebrafish larvae were determined by ELISA (Demeditec Diagnostics GmbH, Kiel-Wellsee, Germany), following the manufacturer's instructions. In each experiment, three biological replicates were used for each treatment group, and the ELISA was performed using technical duplicates.
Tail fin wounding were performed at 2 days post-fertilization (dpf). At 96hpf, the treatments were stopped, and larvae were incubated in egg water until 5 dpf to avoid cross-reactivity between the compounds and the cortisol antibody used in the ELISA. At dpf, the larvae were collected in an Eppendorf tube (30 larvae per sample), and 100 μl of ice-cold egg water was added. After the excess water had been taken out, the samples were glaciated in ethanol (EtOH)/dry-ice bath. Subsequently, the larvae were homogenized using a BulletBlender® for 3 min at 8,000 rpm. Ethyl acetate was added to the homogenate. The homogenates were then centrifuged at 4° C. for 8 min at 11,000 rpm, and the supernatant was collected and vaporized. A volume of 150 μl of 0.2% bovine serum albumin (Sigma-Aldrich) dissolved in PBS was added to the samples and frozen. Whole-body cortisol levels of the zebrafish larvae were determined using a Cortisol free in Saliva ELISA kit (Demeditec Diagnostics GmbH, Kiel-Wellsee, Germany), following the manufacturer's instructions. In each experiment, three biological replicates were used for each treatment group, and the ELISA was performed using technical duplicates.

fkbp5 = assay: qPCR fkbp5 expression in zebrafish larvae; format: in vivo, zebrafish (Danio rerio); conditions: for fkbp5 expression, short-term treatment / fkbp5 expression, long-term treatment: beclomethasone 10 μM, Rg1 50 μM or combination; for fkbp5 expression, long-term treatment: 5 days
Description: […] Groups of 15 larvae were collected in TRIzol reagent (ThermoFisher) and total RNA was isolated using miRNeasy mini kit (Qiagen, Hilden, Germany). For experiments in HeLa cells, cells were seeded in 6 well plates and after treatment, the cells were removed from the wells using TRIzol reagent and mRNA was isolated using miRNeasy mini kit (Qiagen) according to the manufacturer's instructions. The RNA samples were DNAse-treated utilizing the DNA-free™ DNA Removal Kit (ThermoFisher Scientific). The cDNA synthesis was performed using the iScript cDNA synthesis kit (Bio-Rad Laboratories, Hercules, CA, USA) using 1 μg of RNA per sample. For qPCR, 10 μM of forward primer and 10 μM of reverse primer, 12.5 μl of IQ SYBR Green Supermix (Bio-Rad Laboratories), and 2 μl of cDNA were added to the qPCR reaction mixture. […] The qPCR reactions were performed on a MyiQ-single-color real-time PCR detection system (Bio-Rad Laboratories), with initial denaturation for 3 min, 95° C., and 40 cycles of 15 s at 95.5° C., 15 s at 60° C., and 30 s at 72° C. Cycle threshold values (Ct values, i.e. the cycle numbers at which a threshold value of the fluorescence intensity was reached) were determined for each sample. The gene expression level for each sample was normalized using the expression of ppial (peptidylprolyl isomerase Ab (cyclophilin A)) for zebrafish samples, and 18S rRNA for human cells. The fold change per sample (compared to the respective control group) was calculated using the […]Ct method.
[…] Per sample, groups of 15 larvae were collected in TRIzol reagent (Thermo Fisher Scientific, Waltham, MA, USA), and total RNA was isolated using the miRNeasy mini kit (Qiagen, Hilden, Germany). For similar experiments in Hela cells, cells were seeded in 6 well plates, and after 6 h of chemical treatment, the cells were removed from the wells using TRIzol reagent, and total RNA was isolated using the miRNeasy mini kit according to the manufacturer's instructions. The RNA samples were DNAse-treated utilizing the DNA-free™ DNA Removal Kit (Thermo Fisher Scientific). The cDNA synthesis was performed using the iScript cDNA synthesis kit (Bio-Rad Laboratories, Hercules, CA, USA) using 1 μg of RNA per sample. For the PCR reactions, 10 μM of forward and 10 μM of reverse primer, 12.5 μl of iQ SYBR Green Supermix (Bio-Rad), and 2 μl of cDNA were added to the qPCR reaction mixture. […] The reactions were performed on a MyiQ-single-color real-time PCR detection system (Bio-Rad Laboratories) with initial denaturation for 3 min at 95° C. and 40 cycles of 15 s at 95.5° C., 15 s at 60° C., and 30 s at 72° C. Cycle threshold values (Ct values, i.e. the cycle numbers at which a threshold value of the fluorescence intensity was reached) were determined for each sample. The gene expression level for each sample was normalized using the expression of ppial (peptidylprolyl isomerase Ab (cyclophilin A)) for zebrafish samples, 18S rRNA for human cells. The fold change per sample (compared to the respective control group) was calculated using the ΔΔCt method.

[1] = 3 dpf, wounded larvae, 6 h, 10 μM beclomethasone, 50 μM Rg1 or combination

Q: How did the “macrophage migration upon tail fin wounding” value (macrophages) turn out when `CC(C)=CCC[C@](C)(O[C@@H]1O[C@H](CO)[C@@H](O)[C@H](O)[C@H]1O)[C@H]1CC[C@]2(C)[C@@H]1[C@H](O)C[C@@H]1[C@@]3(C)CC[C@H](O)C(C)(C)[C@@H]3[C@@H](O)C[C@]12C` [F1] was run?
A: without affecting the macrophage migration

Q: And the whole-body cortisol level (zebrafish larvae)?
A: did not show any side effects

Q: What about the “whole-body cortisol level upon wounding” value (zebrafish larvae) of the same molecule?
A: minor effect on the cortisol level and on tissue regeneration

Q: And the “cortisol effect upon wounding in presence of Gba2 inhibitor MZ31” value (zebrafish larvae; Example 2, wounded, with MZ31)?
A: These latter effects were Gba2-dependent

Q: And the fkbp5 expression (fkbp5; Example 2, 6 h treatment)?
A: did not increase the expression

Q: How did the “macrophage migration upon tail fin wounding” value (macrophages) turn out when `CC(C)=CCC[C@](C)(O)[C@H]1CC[C@]2(C)[C@@H]1[C@H](O)C[C@@H]1[C@@]3(C)CC[C@H](O)C(C)(C)[C@@H]3[C@@H](O)C[C@]12C` [PPT, Protopanaxatriol] was run?
A: without affecting the macrophage migration

Q: What about the whole-body cortisol level (zebrafish larvae) of the same molecule?
A: did decrease the cortisol concentration

Q: What about the fkbp5 expression (fkbp5; Example 2, 6 h treatment) of the same molecule?
A: did not increase the expression

Q: What does the source list for `CC(C)=CCC[C@](C)(O[C@@H]1O[C@H](CO)[C@@H](O)[C@H](O)[C@H]1O)[C@H]1CC[C@]2(C)[C@@H]1[C@H](O)C[C@@H]1[C@@]3(C)CC[C@H](O)C(C)(C)[C@@H]3[C@@H](O[C@@H]3O[C@H](CO)[C@@H](O)[C@H](O)[C@H]3O)C[C@]12C` [Rg1, (3β,6α, 12β)-3,12-Dihydroxydammar-24-ene-6,20-diyl bis-β-D-glucopyranoside]?
A: macrophage migration upon tail fin wounding (macrophages): without affecting the macrophage migration; whole body cortisol level (zebrafish larvae): did not affect the whole-body glucose and cortisol concentrations; whole-body cortisol level (zebrafish larvae): did not show any side effects; whole-body cortisol level upon wounding (zebrafish larvae): still not show any effect on the glucose or cortisol level or on tissue regeneration; fkbp5 expression (fkbp5; [1]): did not affect the expression of these genes; fkbp5 expression, short-term treatment (fkbp5; 6 h): did not affect the expression of the genes; fkbp5 expression, long-term treatment (fkbp5): did not affect the expression of the genes; fkbp5 expression (fkbp5; Example 2, 6 h treatment): did not increase the expression

Q: What does the source list for `CC(C)=CCC[C@](C)(O)[C@H]1CC[C@]2(C)[C@@H]1[C@H](O)C[C@@H]1[C@@]3(C)CC[C@H](O)C(C)(C)[C@@H]3[C@@H](O[C@@H]3O[C@H](CO)[C@@H](O)[C@H](O)[C@H]3O)C[C@]12C` [Rh1]?
A: macrophage migration upon tail fin wounding (macrophages): without affecting the macrophage migration; whole-body cortisol level (zebrafish larvae): did not show any side effects; whole-body cortisol level upon wounding (zebrafish larvae): still not show any effect on the glucose or cortisol level or on tissue regeneration; fkbp5 expression (fkbp5; Example 2, 6 h treatment): did not increase the expression

Q: Which “macrophage migration upon tail fin wounding” value (macrophages) does the source give for `C[C@H]1C[C@H]2[C@@H]3CCC4=CC(=O)C=C[C@]4(C)[C@@]3(Cl)[C@@H](O)C[C@]2(C)[C@@]1(O)C(=O)CO` [beclomethasone, reference compound] here?
A: without affecting the macrophage migration

Q: And the “whole body cortisol level” value (zebrafish larvae)?
A: reduced whole body cortisol levels

Q: What about the whole-body cortisol level (zebrafish larvae) of the same molecule?
A: decrease in cortisol level

Q: What about the “dose-response of whole-body cortisol level” value (zebrafish larvae; beclomethasone 0.1, 1, 5, 10, 15 μM without or with 50 μM Rg1) of the same molecule?
A: dose-dependent effect

Q: And the fkbp5 expression (fkbp5; [1])?
A: upregulated the expression of pck1 and fkbp5

Q: What about the “fkbp5 expression, short-term treatment” value (fkbp5; 6 h) of the same molecule?
A: upregulated the expression

Q: And the “fkbp5 expression, long-term treatment” value (fkbp5)?
A: the upregulation of fkbp5 did not decrease
